Target: ROCK2 protein (Homo sapiens, UniProt O75116)
Assay: Degradation inducing activity of ROCK2 protein in HUVEC cells, Western blotting (Simple Western JESS)
Type: cell-based
Design: endogenous in cells; host or cells: HUVEC (ATCC CRL-1730)
Settings: HUVEC, 24 h; for inhibition at 1 µM: degradation rate at 1 µM; for inhibition at 10 µM: degradation rate at 10 µM
Procedure: In vitro degradation inducing activity of ROCK2 protein of compounds of Examples was evaluated by Western Blotting (WB).
By a test compound, 10 mM DMSO solution was prepared, which was used as a 10 µM test compound solution. Further, the solution was diluted 10-fold with DMSO to prepare a 1 mM solution, which was used as a 1 µM test compound solution.
HUVEC cells (ATCC: CRL-1730, Lot: 70041472) were cultured in F-12K medium supplemented with 10% FBS, 0.1 mg/mL heparin, […] Endothelial Cell Growth Supplement (ECGS, Corning), and 1% Penicillin/Streptomycin. The HUVEC cells seeded in a 24 well plate at 50,000 cells/well/1 mL were cultured for 24 hours, and then 1 µL of DMSO or a test compound solution was added thereto and treatment was performed for 24 hours. Cells were harvested and lysed for 20 minutes on ice using lysis buffer (Cell Signaling Technology, Cat#9803) supplemented with protease inhibitor cocktail (Sigma, Cat#P8340; Roche, Cat#P11873580001), and phosphatase inhibitor cocktail (Sigma, Cat#P5726, P0044). The lysate was sonicated (15 seconds, amplitude 30%, 1 cycle) and then centrifuged at 12500 rpm for 15 minutes at 4°C. The protein concentration was determined by BCA assay kit (Thermo Fisher Scientific, Cat#23225).
The western blotting was performed using Simple Western JESS (protein simple). A cell lysis sample (protein amount; about 1.06 µg) was loaded on a plate of Simple Western JESS, and the expression level of ROCK2 protein was detected using a 12-230 kDa Wes Separation Module (Protein simple, Cat#SM-WO04), an Anti-Rabbit Detection Module for Wes (Protein simple, Cat#DM-001), and a Total Protein Detection Module for Wes (Protein simple, Cat#DM-TP01). As the primary antibody, a material obtained by diluting ROCK2 (D1B1) Rabbit mAb (Cell Signaling Technology, Cat#9029) at 1:10 was used, and as the secondary antibody, a material obtained by diluting HRP-labeled anti-rabbit IgG antibody (Cell Signaling Technology, Cat#7074S) at 1:100 was used. The expression level of the target protein was standardized using the total protein amount loaded as a reference. The standardized expression level data of the control (DMSO) was taken as 100%, and the degradation rate (%) was calculated from the average standardized expression level data of the test compound. All analysis steps, such as data detection and analysis, are fully automated.
With respect to the ROCK2 protein degradation rate of the test compound, the protein degradation rates (%) at the evaluation concentrations were set to A ≥ 75%, 75% > B ≥ 50%, 50% > C ≥ 25%, and D < 25%, and are shown in Table 7.

Chain of ROCK2 protein (O75116 whole entry): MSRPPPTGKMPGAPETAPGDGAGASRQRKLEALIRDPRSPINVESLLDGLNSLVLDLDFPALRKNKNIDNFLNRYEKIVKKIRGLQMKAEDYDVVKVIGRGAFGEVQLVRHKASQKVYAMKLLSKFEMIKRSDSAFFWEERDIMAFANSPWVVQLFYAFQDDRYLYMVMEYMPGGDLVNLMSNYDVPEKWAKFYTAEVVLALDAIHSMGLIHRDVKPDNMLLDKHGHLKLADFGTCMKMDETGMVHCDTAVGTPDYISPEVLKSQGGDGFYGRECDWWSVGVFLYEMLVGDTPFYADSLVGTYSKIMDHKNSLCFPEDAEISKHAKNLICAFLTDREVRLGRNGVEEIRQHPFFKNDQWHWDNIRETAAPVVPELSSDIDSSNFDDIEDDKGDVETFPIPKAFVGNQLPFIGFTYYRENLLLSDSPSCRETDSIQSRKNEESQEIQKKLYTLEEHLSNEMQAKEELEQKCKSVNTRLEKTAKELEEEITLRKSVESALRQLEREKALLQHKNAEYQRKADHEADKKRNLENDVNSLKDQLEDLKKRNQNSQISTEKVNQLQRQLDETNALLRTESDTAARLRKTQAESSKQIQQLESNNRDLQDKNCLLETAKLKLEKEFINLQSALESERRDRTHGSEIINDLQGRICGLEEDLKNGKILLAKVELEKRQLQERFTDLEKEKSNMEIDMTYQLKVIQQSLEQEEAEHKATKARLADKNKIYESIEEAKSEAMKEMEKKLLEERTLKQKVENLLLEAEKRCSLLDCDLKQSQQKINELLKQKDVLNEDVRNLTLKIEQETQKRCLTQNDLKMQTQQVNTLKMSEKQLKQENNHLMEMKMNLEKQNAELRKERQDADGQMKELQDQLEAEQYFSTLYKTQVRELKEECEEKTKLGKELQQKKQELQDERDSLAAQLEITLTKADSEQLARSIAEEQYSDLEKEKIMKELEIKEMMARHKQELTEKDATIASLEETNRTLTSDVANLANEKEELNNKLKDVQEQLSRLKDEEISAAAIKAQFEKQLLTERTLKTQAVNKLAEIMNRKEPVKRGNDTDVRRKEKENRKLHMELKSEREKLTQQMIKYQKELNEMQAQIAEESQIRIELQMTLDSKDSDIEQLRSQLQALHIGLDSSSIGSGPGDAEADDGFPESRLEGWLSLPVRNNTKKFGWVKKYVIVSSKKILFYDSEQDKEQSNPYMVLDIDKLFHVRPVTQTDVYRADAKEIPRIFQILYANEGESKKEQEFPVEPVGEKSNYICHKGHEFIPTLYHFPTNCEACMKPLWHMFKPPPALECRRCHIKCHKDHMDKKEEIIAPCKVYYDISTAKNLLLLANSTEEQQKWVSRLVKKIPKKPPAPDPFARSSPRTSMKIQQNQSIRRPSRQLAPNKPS

SMILES | inhibition at 1 µM | inhibition at 10 µM
COC[C@H]1CN[C@H](C)CN1CC(=O)N1CC(C)(C)c2nc(CN(C)CCOCCOCCOCCNC[C@@H](C(=O)Nc3ccc4cnccc4c3)c3ccccc3)c(Cc3ccc(F)cc3)cc21 [Example 38, (S)-1-(6-(4-Fluorobenzyl)-1-(2-((2R,5R)-2-(methoxymethyl)-5-methylpiperazin-1-yl)acetyl)-3,3-dimethyl-2,3-dihydro-1H-pyrrolo[3,2-b]pyridin-5-yl)-N-(isoquinolin-6-yl)-2-methyl-16-phenyl-5,8,11-trioxa-2,14-diazaheptadecan-17-amide] | < 25% | ≥ 75%
COC[C@H]1CN[C@H](C)CN1CC(=O)N1CC(C)(C)c2nc(CN(C)CCOCCN[C@H](C)c3ccc(C(=O)Nc4ccncc4)cc3)c(Cc3ccc(F)cc3)cc21 [Example 22, 4-((R)-1-((2-(2-(((6-(4-Fluorobenzyl)-1-(2-((2R,5R)-2-(methoxymethyl)-5-methylpiperazin-1-yl)acetyl)-3,3-dimethyl-2,3-dihydro-1H-pyrrolo[3,2-b]pyridin-5-yl)methyl)(methyl)amino)ethoxy)ethyl)amino)ethyl)-N-(pyridin-4-yl)benzamide] | < 25% | ≥ 75%
COC[C@H]1CN[C@H](C)CN1CC(=O)N1CC(C)(C)c2ncc(Cc3ccccc3OCCOCCOCCOCCOCCOCCNC[C@@H](C(=O)Nc3ccc4cnccc4c3)c3ccccc3)cc21 [Example 82, (S)-N-(Isoquinolin-6-yl)-1-(2-((1-(2-((2R,5R)-2-(methoxymethyl)-5-methylpiperazin-1-yl)acetyl)-3,3-dimethyl-2,3-dihydro-1H-pyrrolo[3,2-b]pyridin-6-yl)methyl)phenoxy)-20-phenyl-3,6,9,12,15-pentaoxa-18-azahenicosan-21-amide] | 25 to 50% | ≥ 75%
COC[C@H]1CN[C@H](C)CN1CC(=O)N1CC(C)(C)c2ncc(Cc3ccccc3OCCOCCOCCOCCOCCOCCOCCOCCN[C@H](Cc3cccc(F)c3)C(=O)Nc3ccc(-c4ccncc4)cc3)cc21 [Example 77, (R)-2-(3-Fluorobenzyl)-26-(2-((1-(2-((2R,5R)-2-(methoxymethyl)-5-methylpiperazin-1-yl)acetyl)-3,3-dimethyl-2,3-dihydro-1H-pyrrolo[3,2-b]pyridin-6-yl)methyl)phenoxy)-N-(4-(pyridin-4-yl)phenyl)-6,9,12,15,18,21,24-heptaoxa-3-azahexacosanamide] | < 25% | ≥ 75%
COC[C@H]1CN[C@H](C)CN1CC(=O)N1CC(C)(C)c2nc(CN(C)CCOCCOCCOCCOCCN[C@H](C)c3ccc(C(=O)Nc4ccncc4)cc3)c(Cc3ccc(F)cc3)cc21 [Example 25, 4-((R)-1-(6-(4-Fluorobenzyl)-1-(2-((2R,5R)-2-(methoxymethyl)-5-methylpiperazin-1-yl)acetyl)-3,3-dimethyl-2,3-dihydro-1H-pyrrolo[3,2-b]pyridin-5-yl)-2-methyl-5,8,11,14-tetraoxa-2,17-diazanonadecan-18-yl)-N-(pyridin-4-yl)benzamide] | ≥ 75% | ≥ 75%
COC[C@H]1CN[C@H](C)CN1CC(=O)N1CC(C)(C)c2ncc(Cc3cccc(OCCOCCN[C@H](C)c4ccc(C(=O)Nc5ccncc5)cc4)c3)cc21 [Example 43, 4-((R)-1-((2-(2-(3-((1-(2-((2R,5R)-2-(Methoxymethyl)-5-methylpiperazin-1-yl)acetyl)-3,3-dimethyl-2,3-dihydro-1H-pyrrolo[3,2-b]pyridin-6-yl)methyl)phenoxy)ethoxy)ethyl)amino)ethyl)-N-(pyridin-4-yl)benzamide] | 25 to 50% | ≥ 75%
COC[C@H]1CN[C@H](C)CN1CC(=O)N1CC(C)(C)c2ncc(Cc3cccc(OCCOCCOCCOCCOCCN[C@H](C)c4ccc(C(=O)Nc5ccncc5)cc4)c3)cc21 [Example 46, 4-((R)-17-(3-((1-(2-((2R,5R)-2-(Methoxymethyl)-5-methylpiperazin-1-yl)acetyl)-3,3-dimethyl-2,3-dihydro-1H-pyrrolo[3,2-b]pyridin-6-yl)methyl)phenoxy)-6,9,12,15-tetraoxa-3-azaheptadecan-2-yl)-N-(pyridin-4-yl)benzamide] | 25 to 50% | 25 to 50%
COC[C@H]1CN[C@H](C)CN1CC(=O)N1CC(C)(C)c2ncc(Cc3cccc(OCCOCCOCCOCCOCCOCCOCCN[C@H](Cc4cccc(F)c4)C(=O)Nc4ccc(-c5ccncc5)cc4)c3)cc21 [Example 55, (R)-2-(3-Fluorobenzyl)-23-(3-((1-(2-((2R,5R)-2-(methoxymethyl)-5-methylpiperazin-1-yl)acetyl)-3,3-dimethyl-2,3-dihydro-1H-pyrrolo[3,2-b]pyridin-6-yl)methyl)phenoxy)-N-(4-(pyridin-4-yl)phenyl)-6,9,12,15,18,21-hexaoxa-3-azatricosanamide] | < 25% | 50 to 75%
COC[C@H]1CN[C@H](C)CN1CC(=O)N1CC(C)(C)c2ncc(Cc3ccccc3OCCOCCNC[C@@H](C(=O)Nc3ccc4cnccc4c3)c3ccccc3)cc21 [Example 78, (S)-N-(Isoquinolin-6-yl)-3-((2-(2-(2-((1-(2-((2R,5R)-2-(methoxymethyl)-5-methylpiperazin-1-yl)acetyl)-3,3-dimethyl-2,3-dihydro-1H-pyrrolo[3,2-b]pyridin-6-yl)methyl)phenoxy)ethoxy)ethyl)amino)-2-phenylpropanamide] | < 25% | ≥ 75%
C[C@@H]1CN(CC(=O)N2CC(C)(C)c3ncc(Cc4ccc(F)cc4)cc32)[C@@H](CN(C)CCOCCOCCOCCOCCOCCOCCOCCN[C@H](C)c2ccc(C(=O)Nc3ccncc3)cc2)CN1 [Example 7, 4-((R)-1-((2R,5R)-1-(2-(6-(4-Fluorobenzyl)-3,3-dimethyl-2,3-dihydro-1H-pyrrolo[3,2-b]pyridin-1-yl)-2-oxoethyl)-5-methylpiperazin-2-yl)-2-methyl-5,8,11,14,17,20,23-heptaoxa-2,26-diazaoctacosan-27-yl)-N-(pyridin-4-yl)benzamide] | 50 to 75% | 50 to 75%
COC[C@H]1CN[C@H](C)CN1CC(=O)N1CC(C)(C)c2ncc(Cc3cccc(OCCOCCOCCN[C@H](Cc4cccc(F)c4)C(=O)Nc4ccc(-c5ccncc5)cc4)c3)cc21 [Example 51, (R)-3-(3-Fluorophenyl)-2-((2-(2-(2-(3-((1-(2-((2R,5R)-2-(methoxymethyl)-5-methylpiperazin-1-yl)acetyl)-3,3-dimethyl-2,3-dihydro-1H-pyrrolo[3,2-b]pyridin-6-yl)methyl)phenoxy)ethoxy)ethoxy)ethyl)amino)-N-(4-(pyridin-4-yl)phenyl)propenamide] | 50 to 75% | ≥ 75%
C[C@@H]1CN(CC(=O)N2CC(C)(C)c3ncc(Cc4ccc(F)cc4)cc32)[C@@H](CN(C)CCOCCOCCOCCOCCOCCOCCNC[C@@H](C(=O)Nc2ccc3cnccc3c2)c2ccccc2)CN1 [Example 20, (S)-1-((2R,5R)-1-(2-(6-(4-Fluorobenzyl)-3,3-dimethyl-2,3-dihydro-1H-pyrrolo[3,2-b]pyridin-1-yl)-2-oxoethyl)-5-methylpiperazin-2-yl)-N-(isoquinolin-6-yl)-2-methyl-25-phenyl-5,8,11,14,17,20-hexaoxa-2,23-diazahexacosan-26-amide] | 50 to 75% | ≥ 75%
